For one data set, the target named is T1, SHP2 E76A protein (Homo sapiens, UniProt Q06124, E76A).
T1 sequence (Q06124 1-593 E76A): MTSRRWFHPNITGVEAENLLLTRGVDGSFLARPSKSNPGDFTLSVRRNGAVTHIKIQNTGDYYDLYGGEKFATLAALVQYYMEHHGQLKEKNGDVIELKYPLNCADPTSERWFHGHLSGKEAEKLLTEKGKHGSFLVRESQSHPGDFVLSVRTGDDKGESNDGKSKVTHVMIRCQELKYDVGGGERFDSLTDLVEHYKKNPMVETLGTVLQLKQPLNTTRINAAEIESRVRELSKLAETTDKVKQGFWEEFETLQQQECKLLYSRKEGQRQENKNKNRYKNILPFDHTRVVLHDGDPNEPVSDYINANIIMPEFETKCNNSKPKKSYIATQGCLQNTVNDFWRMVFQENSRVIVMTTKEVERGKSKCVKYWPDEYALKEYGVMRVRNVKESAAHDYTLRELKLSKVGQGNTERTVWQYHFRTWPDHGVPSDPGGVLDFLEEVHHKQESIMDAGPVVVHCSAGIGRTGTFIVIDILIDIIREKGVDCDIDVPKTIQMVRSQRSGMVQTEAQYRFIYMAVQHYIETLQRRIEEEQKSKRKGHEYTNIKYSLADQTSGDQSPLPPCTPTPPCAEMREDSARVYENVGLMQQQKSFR
The data set can be described thus: SHP2 enzyme activity inhibition test (DiFMUP substrate, fluorescence). It counts as biochemical. The settings on record: 50 ng SHP2 E76A, 20 min with compound, then 10 uM DiFMUP 20 min at room temperature.

Another data set deals with MV4-11 cells. The data set can be described thus: MV4-11 cell proliferation inhibition experiment (CellTiter-Glo). It counts as cell-based. The settings on record: Homo sapiens, read-out: Cell proliferation inhibition activity. On the procedure: The number of living cells in the culture was determined by quantitative determination of intracellular ATP using CellTiter-Glo® Luminescent Cell Viability Assay kit.
In the first step, MV4-11 cells were inoculated into 96-well plates with a density of 2500 cells per well and a volume of 100 μL per well. The plates were placed in 37° C., 5% carbon dioxide incubator overnight.
In the second step, cells were treated with compounds. The compounds to be tested were diluted 3 times, and 8 concentration gradients were set up. Each well was added with a certain volume of DMSO or the compound to be tested, and each concentration was tested in 2 replicates, and the final concentration of DMSO was 0.5%. The plates were placed in 37° C., 5% carbon dioxide incubator for 72 h.
In the third step, cell viability of the control groups and the treatment groups was determined using CellTiter-Glo® Luminescent Cell Viability Assay kit (Promega, G7570). Each well was added with 50 uL CellTiter-Glo. The culture was mixed well, and incubated at room temperature for 10 min. Signals were read using EnSpire (Perkin Elmer). Inhibition percentages (%) were calculated by the following formula:
Inhibition percentage (%)=(1−signal value of compound treatment group/signal value of DMSO treatment group)*100.

The nature of data set [1]: Pharmacokinetics experiment, intragastric single dose. It counts as in vivo. The conditions noted are these: mouse, plasma, male mice, oral administration dosage 5 mg/Kg; for half-life: read-out: Half-life T1/2 (converted); for Cmax: read-out: Maximum plasma concentration Cmax; for AUC: read-out: Plasma exposure AUC. On the procedure:
Pharmacokinetics of the compound of the disclosure was determined. The following method was used to determine the pharmacokinetic parameters of the compound of the disclosure. Healthy male adult mice were used in the study. Each group was intragastrically administered with a single dose of 5-100 mg/kg. Fasting lasted from 10 hours before administration to 4 hours after administration. Blood samples were collected at different time points after administration and the compound content in plasma was determined by LC-MS/MS. The relationship between plasma concentration and time was analyzed by professional software (winnonlin), and the pharmacokinetic parameters of the compounds were calculated. According to Table 3, the compounds of the disclosure have excellent pharmacokinetic properties.

Where [2] appears, read: MV4-11 cells, 72 h, CellTiter-Glo.

In general, bioavailability refers to the share of a dose that reaches the circulation, judged against a reference dose that is usually intravenous. Read a low bioavailability as poor availability. As a reminder, the AUC is the area under the concentration-time curve, a measure of exposure.

The structures appear in SMILES notation. Like-named read-outs stand apart in the source and are kept apart here.

On to `N[C@@H]1c2ncccc2CC12CCN(c1ncc(Sc3cccnc3C(F)(F)F)c3nncn13)CC2` [Compound 21, (S)-1′-(8-((2-(trifluoromethyl)pyridin-3-yl)thio)-[1,2,4]-triazolo[4,3-c]pyrimidin-5-yl)-5,7-dihydrospiro[cyclopenta[b]pyridine-6,4′-piperidine]-7-amine], for which the IC50 at SHP2 E76A protein came to 11 nM.

For the molecule `N#Cc1cccc2c1CC1(CCN(c3ncc(Sc4ccnc(N)c4Cl)c4nncn34)CC1)[C@@H]2N` [Compound 17, (S)-1-amino-1′-(8-((2-amino-3-chloropyridin-4-yl)thio)-[1,2,4]triazolo[4,3-c]pyrimidin-5-yl)-1,3-dihydrospiro[indene-2,4′-piperidine]-4-nitrile], the figures for the IC50 with MV4-11 cells (setting [2]) and at SHP2 E76A protein were 35 nM and 10 nM, respectively.

As for `Nc1nccc(Sc2cnc(N3CCC4(CC3)Cc3cnccc3[C@H]4N)n3cnnc23)c1Cl` [Compound 15, (S)-1′-(8-((2-amino-3-chloropyridin-4-yl)thio)-[1,2,4]triazolo[4,3-c]pyrimidin-5-yl)-5,7-dihydrospiro[cyclopenta[c]pyridine-6,4′-piperidine]-5-amine], the IC50 with MV4-11 cells (setting [2]) turned out to be 94 nM; on SHP2 E76A protein, 3 nM.

In the case of `Nc1nccc(Sc2cnc(N3CCC4(CC3)Cc3nccnc3[C@H]4N)n3cnnc23)c1Cl` [Compound 20, (S)-1′-(8-((2-amino-3-chloropyridin-4-yl)thio)-[1,2,4]triazolo[4,3-c]pyrimidin-5-yl)-5,7-dihydrospiro[cyclopenta[b]pyrazine-6,4′-piperidine]-5-amine], the IC50 at SHP2 E76A protein is 6 nM.

On to `N[C@@H]1c2cccnc2CC12CCN(c1ncc(Sc3ccnc4c3CCO4)c3nccn13)CC2` [Compound 1], for which the IC50 in the data set with MV4-11 cells (MV4-11, 72 h) stood at 68 nM; on SHP2 E76A protein, 11 nM.

As to `N[C@@H]1c2ncccc2CC12CCN(c1ncc(Sc3ccnc(Cl)c3Cl)c3nncn13)CC2` [Compound 9, (S)-1′-(8-(2,3-dichloropyridin-4-yl)thio-[1,2,4]-triazolo[4,3-c]pyrimidin-5-yl)-5,7-dihydrospiro[cyclopenta[b]pyridine-6,4′-piperidine]-7-amine], the IC50 is 60 nM in the data set with MV4-11 cells (MV4-11, 72 h) and 7 nM at SHP2 E76A protein.

In the case of `N[C@@H]1c2cccnc2CC12CCN(c1ncc(Sc3ccnc4[nH]ncc34)c3nccn13)CC2` [Compound 23], the IC50 on SHP2 E76A protein amounted to 9 nM.

Take `Nc1nccc(Sc2cnc(N3CCC4(CC3)Cc3ccc(F)cc3[C@H]4N)n3cnnc23)c1Cl` [Compound 12, (S)-1′-(8-((2-amino-3-chloropyridin-4-yl)thio)-[1,2,4]triazolo[4,3-c]pyrimidin-5-yl)-6-fluoro-1,3-dihydrospiro[indene-2,4′-piperidine]-1-amine]: the IC50 is 30 nM with MV4-11 cells (setting [2]) and 2 nM at SHP2 E76A protein.

For the molecule `Nc1nccc(Sc2cnc(N3CCC4(CC3)Cc3sc(Cl)nc3[C@H]4N)n3ccnc23)c1Cl` [Compound 22], on SHP2 E76A protein, the IC50 amounted to 9 nM.

Turning to `Nc1nccc(Sc2cnc(N3CCC4(CC3)Cc3ccncc3[C@H]4N)n3cnnc23)c1Cl` [Compound 7, (5)-1′-(8-((2-amino-3-chloropyridin-4-yl)thio)-[1,2,4]triazolo[4,3-c]pyrimidin-5-yl)-5,7-dihydrospiro[cyclopenta[c]pyridine-6,4′-piperidine]-7-amine], the IC50 with MV4-11 cells (setting [2]) amounted to 29 nM. In data set [1], the bioavailability is 98%, the half-life is 3 h, the Cmax worked out at 7.5 µM and the AUC was determined as 43 µM·h. Further, the IC50 at SHP2 E76A protein was found to be 3 nM.

For the molecule `Nc1nccc(Sc2cnc(N3CCC4(CC3)Cc3cccnc3[C@H]4N)n3ccnc23)c1Cl` [Compound 10, (S)-1′-(8-((2-amino-3-chloropyridin-4-yl)thio)imidazo[1,2-c]pyrimidin-5-yl)-5,7-dihydrospiro[cyclopenta[b]pyridine-6,4′-piperidine]-7-amine], the IC50 in the data set with MV4-11 cells (setting [2]) worked out at 7 nM. Further, in data set [1], the bioavailability turned out to be 51%, the half-life is 3.8 h, the Cmax was 5 µM and the exposure (AUC) was found to be 48 µM·h. Besides, the IC50 on SHP2 E76A protein was 3 nM.

`CNc1nccc(Sc2cnc(N3CCC4(CC3)Cc3ncccc3[C@H]4N)n3ccnc23)c1Cl` [Compound 5, (S)-1′-(8-((3-chloro-2-(methylamino)pyridin-4-yl)thio)imidazo[1,2-c]pyrimidin-5-yl)-5,7-dihydrospiro[cyclopenta[b]pyridine-6,4′-piperidine]-5-amine]: the IC50 was 6 nM with MV4-11 cells (MV4-11, 72 h) and 5 nM on SHP2 E76A protein.

For `COc1cccc2c1CC1(CCN(c3ncc(Sc4ccnc(N)c4Cl)c4nncn34)CC1)[C@@H]2N` [Compound 19, (S)-1′-(8-((2-amino-3-chloropyridin-4-yl)thio)-[1,2,4]triazolo[4,3-c]pyrimidin-5-yl)-4-methoxy-1,3-dihydrospiro[indene-2,4′-piperidine]-1-amine], the figures for the IC50 with MV4-11 cells (setting [2]) and at SHP2 E76A protein were 1 nM and 7 nM, respectively.

Turning to `Nc1nccc(Sc2cnc(N3CCC4(CC3)Cc3cnccc3[C@H]4N)n3ccnc23)c1Cl` [Compound 14, (S)-1′-(8-((2-amino-3-chloropyridin-4-yl)thio)imidazo[1,2-c]pyrimidin-5-yl)-5,7-dihydrospiro[cyclopenta[c]pyridine-6,4′-piperidine]-5-amine], the results for the IC50 in the data set with MV4-11 cells (setting [2]) and at SHP2 E76A protein were 36 nM and 8 nM, respectively.

For `Nc1nccc(Sc2cnc(N3CCC4(CC3)Cc3cccnc3[C@H]4N)n3cnnc23)c1Cl` [Compound 11, (S)-1′-(8-((2-amino-3-chloropyridin-4-yl)thio)-[1,2,4]triazolo[4,3-c]pyrimidin-5-yl)-5,7-dihydrospiro[cyclopenta[b]pyridine-6,4′-piperidine]-7-amine], the values for the IC50 with MV4-11 cells (setting [2]) and on SHP2 E76A protein were 30 nM and 1 nM, respectively.

On to `Nc1nccc(Sc2cnc(N3CCC4(CC3)Cc3ncccc3[C@H]4N)n3cnnc23)c1Cl` [Compound 3, (S)-1′-(8-((2-amino-3-chloropyridin-4-yl)thio)-[1,2,4]triazolo[4,3-c]pyrimidin-5-yl)-5,7-dihydrospiro[cyclopenta[b]pyridine-6,4′-piperidine]-5-amine], for which the figures for the IC50 in the data set with MV4-11 cells (setting [2]) and on SHP2 E76A protein were 99 nM and 11 nM, respectively.

In the case of `Nc1nccc(Sc2cnc(N3CCC4(CC3)Cc3ccc(F)cc3[C@H]4N)n3ccnc23)c1Cl` [Compound 13, (S)-1′-(8-((2-amino-3-chloropyridin-4-yl)thio)imidazo[1,2-c]pyrimidin-5-yl)-6-fluoro-1,3-dihydrospirolindene-2,4′-piperidinel-1-amine], the IC50 with MV4-11 cells (setting [2]) and on SHP2 E76A protein was 1 nM in each case.

`Nc1nccc(Sc2cnc(N3CCC4(CC3)Cc3c(O)cccc3[C@H]4N)n3cnnc23)c1Cl` [Compound 16, (S)-1-amino-1′-(8-((2-amino-3-chloropyridin-4-yl)thio)-[1,2,4]triazolo[4,3-c]pyrimidin-5-yl)-1,3-dihydrospiro[indene-2,4′-piperidin]-4-ol]: the IC50 is 52 nM in the data set on MV4-11 cells (MV4-11, 72 h) and 2 nM on SHP2 E76A protein.

With `Nc1nccc(Sc2cnc(N3CCC4(CC3)Cc3ccccc3[C@H]4N)n3cnnc23)c1Cl` [Compound 2], the IC50 was found to be 11 nM in the data set with MV4-11 cells (setting [2]) and 4 nM at SHP2 E76A protein.

As for `Nc1nccc(Sc2cnc(N3CCC4(CC3)Cc3ccncc3[C@H]4N)n3ccnc23)c1Cl` [Compound 8, (S)-1′-(8-((2-amino-3-chloropyridin-4-yl)thio)imidazo[1,2-c]pyrimidin-5-yl)-5,7-dihydrospiro[cyclopenta[c]pyridine-6,4′-piperidine]-7-amine], the figures for the IC50 in the data set with MV4-11 cells (setting [2]) and on SHP2 E76A protein were 33 nM and 10 nM, respectively.

As to `C[C@@H]1OCC2(CCN(c3ncc(Sc4ccnc(N)c4Cl)n4nccc34)CC2)[C@@H]1N` [Positive control aa, reference compound], the IC50 in the data set with MV4-11 cells (setting [2]) was 423 nM; on SHP2 E76A protein it was 26 nM.

These data come from patent US12441743B2, “Spiro aromatic ring compound and use thereof” (Etern Biopharma (Shanghai) Co., Ltd., priority 2018, dated 2025).
